Several values for one entry are separate records, joined by “and”; a condition that tells them apart may be missing. Equal values may be shown once. Read-outs that look alike come from different tables or passages of the source.
Experiments:
human KOR (GoA) [1] = target: T1, human KOR (GoA) (Homo sapiens, UniProt P41145, F283A); assay: cell-based
T1 construct: expressed in transfected cells; host or cells: HEK293T

human KOR (GoA) [2] = target: T2, human KOR (GoA) (Homo sapiens, UniProt P41145, R257A); assay: cell-based
T2 construct: expressed in transfected cells; host or cells: HEK293T
T2 sequence (P41145 whole entry R257A): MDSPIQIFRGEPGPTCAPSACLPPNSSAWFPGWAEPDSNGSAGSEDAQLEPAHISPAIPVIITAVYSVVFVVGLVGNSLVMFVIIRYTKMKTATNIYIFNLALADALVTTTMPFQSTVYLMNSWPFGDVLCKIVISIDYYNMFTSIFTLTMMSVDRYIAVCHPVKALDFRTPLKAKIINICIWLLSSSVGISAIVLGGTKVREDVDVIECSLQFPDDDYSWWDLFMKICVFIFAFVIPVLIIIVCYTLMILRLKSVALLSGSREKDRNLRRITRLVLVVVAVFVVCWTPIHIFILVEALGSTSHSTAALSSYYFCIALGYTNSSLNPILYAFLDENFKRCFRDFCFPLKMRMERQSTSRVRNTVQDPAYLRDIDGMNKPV

human KOR (GoA) [3] = target: T3, human KOR (GoA) (Homo sapiens, UniProt P41145, R271A); assay: cell-based
T3 construct: expressed in transfected cells; host or cells: HEK293T
T3 sequence (P41145 whole entry R271A): as the sequence (P41145 whole entry R257A) above, with A257R, R271A counted along it

human KOR (GoA) [4] = target: T4, human KOR (GoA) (Homo sapiens, UniProt P41145, N322A); assay: cell-based
T4 construct: expressed in transfected cells; host or cells: HEK293T
T4 sequence (P41145 whole entry N322A): as the sequence (P41145 whole entry R257A) above, with A257R, N322A counted along it

human KOR (GoA) [5] = target: T5, human KOR (GoA) (Homo sapiens, UniProt P41145, E297A); assay: cell-based
T5 construct: expressed in transfected cells; host or cells: HEK293T
T5 sequence (P41145 whole entry E297A): as the sequence (P41145 whole entry R257A) above, with A257R, E297A counted along it

human KOR (GoA) [6] = target: T6, human KOR (GoA) (Homo sapiens, UniProt P41145); assay: cell-based
T6 construct: expressed in transfected cells; host or cells: HEK293T
T6 sequence (P41145 whole entry): as the sequence (P41145 whole entry R257A) above, with A257R counted along it

human KOR (GoA) [7] = target: T7, human KOR (GoA) (Homo sapiens, UniProt P41145, L253A); assay: cell-based; details: HEK-293T
T7 construct: expressed in transfected cells; host or cells: HEK293T
T7 sequence (P41145 whole entry L253A): as the sequence (P41145 whole entry R257A) above, with L253A, A257R counted along it

human KOR (GoA) [8] = target: T8, human KOR (GoA) (Homo sapiens, UniProt P41145, Y320L); assay: cell-based; details: HEK-293T
T8 construct: expressed in transfected cells; host or cells: HEK293T
T8 sequence (P41145 whole entry Y320L): as the sequence (P41145 whole entry R257A) above, with A257R, Y320L counted along it

human KOR (GoA) [9] = target: T9, human KOR (GoA) (Homo sapiens, UniProt P41145, T94V); assay: cell-based
T9 construct: expressed in transfected cells; host or cells: HEK293T
T9 sequence (P41145 whole entry T94V): as the sequence (P41145 whole entry R257A) above, with T94V, A257R counted along it

human KOR (GoA) [10] = target: T10, human KOR (GoA) (Homo sapiens, UniProt P41145, K227A); assay: cell-based
T10 construct: expressed in transfected cells; host or cells: HEK293T
T10 sequence (P41145 whole entry K227A): as the sequence (P41145 whole entry R257A) above, with K227A, A257R counted along it

human KOR (Gi3) [11] = target: T11, human KOR (Gi3) (Homo sapiens, UniProt P41145, N326A); assay: cell-based; details: HEK-293T
T11 construct: expressed in transfected cells; host or cells: HEK293T
T11 sequence (P41145 whole entry N326A): as the sequence (P41145 whole entry R257A) above, with A257R, N326A counted along it

human KOR (Gi3) [12] = target: T12, human KOR (Gi3) (Homo sapiens, UniProt P41145, N141A); assay: cell-based; details: HEK-293T
T12 construct: expressed in transfected cells; host or cells: HEK293T
T12 sequence (P41145 whole entry N141A): as the sequence (P41145 whole entry R257A) above, with N141A, A257R counted along it

human KOR (Gi3) [13] = target: T13, human KOR (Gi3) (Homo sapiens, UniProt P41145, E297A); assay: cell-based; details: HEK-293T
T13 construct: expressed in transfected cells; host or cells: HEK293T
T13 sequence (P41145 whole entry E297A): as the sequence (P41145 whole entry R257A) above, with A257R, E297A counted along it

human KOR (Gi3) [14] = target: T14, human KOR (Gi3) (Homo sapiens, UniProt P41145, Y320L); assay: cell-based; details: HEK-293T
T14 construct: expressed in transfected cells; host or cells: HEK293T
T14 sequence (P41145 whole entry Y320L): as the sequence (P41145 whole entry R257A) above, with A257R, Y320L counted along it

human KOR (Gi3) [15] = target: T15, human KOR (Gi3) (Homo sapiens, UniProt P41145, D334A); assay: cell-based; details: HEK-293T
T15 construct: expressed in transfected cells; host or cells: HEK293T
T15 sequence (P41145 whole entry D334A): as the sequence (P41145 whole entry R257A) above, with A257R, D334A counted along it

human KOR [16] = target: human KOR (Homo sapiens, UniProt P41145); assay: cell-based; parameters: expressed in transfected cells; host or cells: HEK 293T (ATCC, CRL-3216); details: HTLA
Sequence of human KOR (Homo sapiens, UniProt P41145) (P41145 whole entry): as the sequence (P41145 whole entry R257A) above, with A257R counted along it

KOR K227A = KOR K227A (Homo sapiens, UniProt P41145, K227A); type: cell-based; parameters: TEV cleavage site (C); tTA transcription factor (C); expressed in transfected cells; host or cells: HTLA cells; details: Log [Drug]
Sequence of KOR K227A (P41145 whole entry K227A): as the sequence (P41145 whole entry R257A) above, with K227A, A257R counted along it
Sequence of KOR K227A (P32121 whole entry partner): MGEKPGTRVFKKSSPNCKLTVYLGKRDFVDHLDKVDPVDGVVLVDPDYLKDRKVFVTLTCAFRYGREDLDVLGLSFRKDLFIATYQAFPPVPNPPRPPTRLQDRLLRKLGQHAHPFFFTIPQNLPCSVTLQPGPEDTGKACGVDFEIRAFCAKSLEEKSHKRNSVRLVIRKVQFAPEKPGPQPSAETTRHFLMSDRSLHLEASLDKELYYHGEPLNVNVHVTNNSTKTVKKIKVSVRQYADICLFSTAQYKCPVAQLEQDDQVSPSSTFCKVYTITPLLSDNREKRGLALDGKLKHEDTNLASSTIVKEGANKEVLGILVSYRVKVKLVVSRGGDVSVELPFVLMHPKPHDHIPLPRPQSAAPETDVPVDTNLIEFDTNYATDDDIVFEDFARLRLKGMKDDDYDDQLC

human KOR [17] = target: T16, human KOR (Homo sapiens, UniProt P41145, W124L); assay: cell-based; details: HTLA
T16 construct: expressed in transfected cells; host or cells: HEK 293T (ATCC, CRL-3216)
T16 sequence (P41145 whole entry W124L): as the sequence (P41145 whole entry R257A) above, with W124L, A257R counted along it

human KOR [18] = target: T17, human KOR (Homo sapiens, UniProt P41145, Q115N); assay: cell-based; details: HTLA
T17 construct: expressed in transfected cells; host or cells: HEK 293T (ATCC, CRL-3216)
T17 sequence (P41145 whole entry Q115N): as the sequence (P41145 whole entry R257A) above, with Q115N, A257R counted along it

human KOR [19] = target: T18, human KOR (Homo sapiens, UniProt P41145, Y320L); assay: cell-based; details: HTLA
T18 construct: expressed in transfected cells; host or cells: HEK 293T (ATCC, CRL-3216)
T18 sequence (P41145 whole entry Y320L): as the sequence (P41145 whole entry R257A) above, with A257R, Y320L counted along it

human KOR [20] = target: T19, human KOR (Homo sapiens, UniProt P41145, F114L); assay: cell-based; details: HTLA
T19 construct: expressed in transfected cells; host or cells: HEK 293T (ATCC, CRL-3216)
T19 sequence (P41145 whole entry F114L): as the sequence (P41145 whole entry R257A) above, with F114L, A257R counted along it

human KOR [21] = target: T20, human KOR (Homo sapiens, UniProt P41145, V134A); assay: cell-based; details: HTLA
T20 construct: expressed in transfected cells; host or cells: HEK 293T (ATCC, CRL-3216)
T20 sequence (P41145 whole entry V134A): as the sequence (P41145 whole entry R257A) above, with V134A, A257R counted along it

human KOR [22] = target: T21, human KOR (Homo sapiens, UniProt P41145, K227A); assay: cell-based; details: HTLA
T21 construct: expressed in transfected cells; host or cells: HEK 293T (ATCC, CRL-3216)
T21 sequence (P41145 whole entry K227A): as the sequence (P41145 whole entry R257A) above, with K227A, A257R counted along it

human KOR [23] = target: T22, human KOR (Homo sapiens, UniProt P41145, G319L); assay: cell-based; details: HTLA
T22 construct: expressed in transfected cells; host or cells: HEK 293T (ATCC, CRL-3216)
T22 sequence (P41145 whole entry G319L): as the sequence (P41145 whole entry R257A) above, with A257R, G319L counted along it

human KOR [24] = target: T23, human KOR (Homo sapiens, UniProt P41145, W287A); assay: cell-based; details: HTLA
T23 construct: expressed in transfected cells; host or cells: HEK 293T (ATCC, CRL-3216)
T23 sequence (P41145 whole entry W287A): as the sequence (P41145 whole entry R257A) above, with A257R, W287A counted along it

[25] = read-out: KOR WT_Arrestin response (Figure S4D)
[26] = read-out: Tango response (Figure S4C)

T1 sequence (P41145 whole entry F283A): as the sequence (P41145 whole entry R257A) above, with A257R, F283A counted along it

CN(C(=O)/C=C/c1ccoc1)[C@@H]1CC[C@@]2(O)[C@H]3Cc4ccc(O)c5c4[C@@]2(CCN3CC2CC2)[C@H]1O5 [Nalfurafine, nalfurafine]
FC vs wild type (human KOR (GoA) [1]): 13
Emax (human KOR (GoA) [1]; HEK-293T): 89.5%
FC vs wild type (human KOR (GoA) [2]): 14 and 10
FC vs wild type (human KOR (GoA) [3]): 135
Emax (human KOR (GoA) [3]; HEK-293T): 107%
FC vs wild type (human KOR (GoA) [4]): 100
Emax (human KOR (GoA) [4]; HEK-293T): 91.3%
FC vs wild type (human KOR (GoA) [5]): 2
Emax (human KOR (GoA) [5]; HEK-293T): 98.9%
Emax% (human KOR (GoA) [6]): 98.31%
FC vs wild type (human KOR (GoA) [6]): 1
Emax (human KOR (GoA) [6]; HEK-293T): 98.7%
Emax (human KOR (GoA) [7]): 109%
Emax (human KOR (GoA) [8]): 75.8%
FC vs wild type (human KOR (GoA) [9]): 1
Emax (human KOR (GoA) [9]; HEK-293T): 99.7%
FC vs wild type (human KOR (GoA) [10]): 1
Emax (human KOR (GoA) [10]; HEK-293T): 107%
Emax (human KOR (Gi3) [11]): 106%
Emax (human KOR (Gi3) [12]): 107%
Emax (human KOR (Gi3) [13]): 100%
Emax (human KOR (Gi3) [14]): 66.9%
Emax (human KOR (Gi3) [15]): 101%
Emax (human KOR [16]): 100 ± 5%
activation at 3.162 pM (human KOR [16]; [25]): 21.6%
activation at 10 pM (human KOR [16]; [25]): 33.5%
activation at 31.62 pM (human KOR [16]; [25]): 37.7%
activation at 0.0001 µM (human KOR [16]; [25]): 65.6%
activation at 0.001 µM (human KOR [16]; [25]): 67.9%
activation at 0.01 µM (human KOR [16]; [25]): 76.6%
activation at 0.1 µM (human KOR [16]; [25]): 97.1%
activation at 1 µM (human KOR [16]; [25]): 106%
activation at […] (human KOR [16]; [25]): 68.4% and 74.4% and 96.9% and 96.5%
activation at 10 pM (human KOR [16]; read-out: Tango response): 21.8%
activation at 31.62 pM (human KOR [16]; read-out: Tango response): 35.1%
activation at 0.0001 µM (human KOR [16]; read-out: Tango response): 39.8%
activation at 0.001 µM (human KOR [16]; read-out: Tango response): 74.2%
activation at 0.01 µM (human KOR [16]; read-out: Tango response): 80.9%
activation at 1 µM (human KOR [16]; read-out: Tango response): 106%
activation at […] (human KOR [16]; read-out: Tango response): 71% and 100%
activation at 0.0001 µM (human KOR [16]; [26]): 36.1%
activation at 0.001 µM (human KOR [16]; [26]): 74.1%
activation at 0.1 µM (human KOR [16]; [26]): 87.2%
activation at 1 µM (human KOR [16]; [26]): 87.7%
activation at 10 µM (human KOR [16]; [26]): 121%
activation at […] (human KOR [16]; [26]): 77.4% and 111%
KOR K227A_Arrestin response (Figure S4D) (KOR K227A; M -6, replicate values): 101.315 and 102.717
KOR K227A_Arrestin response (Figure S4D) (KOR K227A; M -6.5, replicate values): 105.822 and 93.8848 and 97.1199
KOR K227A_Arrestin response (Figure S4D) (KOR K227A; M -7, replicate values): 91.3062 and 96.8492 and 89.7833
KOR K227A_Arrestin response (Figure S4D) (KOR K227A; M -7.5, replicate values): 70.8658 and 86.1016
KOR K227A_Arrestin response (Figure S4D) (KOR K227A; M -8, replicate values): 84.9439 and 77.9998
KOR K227A_Arrestin response (Figure S4D) (KOR K227A; M -8.5, replicate values): 65.7403 and 77.6179 and 69.9994
KOR K227A_Arrestin response (Figure S4D) (KOR K227A; M -9, replicate values): 59.6373 and 67.8004 and 59.0282
KOR K227A_Arrestin response (Figure S4D) (KOR K227A; M -9.5, replicate values): 49.3052 and 47.5598 and 61.4935
KOR K227A_Arrestin response (Figure S4D) (KOR K227A; M -10, replicate values): 39.6619 and 44.8012 and 31.3899
KOR K227A_Arrestin response (Figure S4D) (KOR K227A; M -10.5, replicate values): 20.4503 and 25.5006 and 21.705
KOR K227A_Arrestin response (Figure S4D) (KOR K227A; M -11, replicate values): 23.8027 and 10.0134 and 11.9765
KOR K227A_Arrestin response (Figure S4D) (KOR K227A; M -12, replicate values): 12.7008 and 13.5043
KOR K227A_Arrestin response (Figure S4D) (KOR K227A; M -12.5, replicate values): 6.071 and 3.454 and 8.161
KOR K227A_Arrestin response (Figure S4D) (KOR K227A; M -13, replicate values): 5.581 and 8.377 and 4.789
KOR K227A_Arrestin response (Figure S4D) (KOR K227A; M -14, replicate values): 0.5358 and 5.464 and 0.3918
Emax (human KOR [17]): 26 ± 4%
activation at 1 µM (human KOR [17]; read-out: Tango response): 19.6%
activation at […] (human KOR [17]; read-out: Tango response): 21% and 25.5%
Emax (human KOR [18]): 98 ± 3%
Emax (human KOR [19]): 66 ± 7%
activation at 0.1 µM (human KOR [19]; read-out: Tango response): 43.6%
activation at 1 µM (human KOR [19]; read-out: Tango response): 51.8%
activation at 10 µM (human KOR [19]; read-out: Tango response): 79.2%
activation at […] (human KOR [19]; read-out: Tango response): 53% and 72.8%
Emax (human KOR [20]): 17 ± 3%
activation at 1 µM (human KOR [20]; read-out: Tango response): 16.2%
activation at 10 µM (human KOR [20]; read-out: Tango response): 15.9%
activation at […] (human KOR [20]; read-out: Tango response): 30.3%
Emax (human KOR [21]): 76 ± 6%
activation at 10 µM (human KOR [21]; read-out: Tango response): 71.1%
activation at […] (human KOR [21]; read-out: Tango response): 50.8% and 73.3%
Emax (human KOR [22]): 89 ± 3%
Emax (human KOR [23]): 2.6 ± 1.2%
activation at 1 µM (human KOR [23]; read-out: Tango response): 4.03%
Emax (human KOR [24]): 85 ± 7%
